According to patent US12410160B2 (Gilead Sciences, Inc., priority 2021, dated 2025):
Read-outs that look alike come from different tables or passages of the source.

Key:
HepG2 cells = test: F1P Cell-Based Assay (EC50), 13C6-fructose-1-phosphate in HepG2 cells (cell culture medium or 50% human plasma)
Method: F1P Cell-Based Assay (EC50)
Compounds were serially diluted (1:3) in DMSO. The LabCyte ECHO Acoustic dispenser system was used to pre-spot the assay plates (Greiner, Catalog #781091) with 400 nL (200-fold final dilution in 80 μL assay volume) of compound. 25,000 cells/well HepG2 cells (ATCC Catalog #HB-8065) were plated in a 40 μL volume/well in DMEM medium with 4.5 g/L glucose, 1× Penicillin-Streptomycin-Glutamine, and 10% FBS, using a BioTEK dispenser in a biological hood and incubated overnight at 37° C., 5% CO2, 90% humidity. 40 μL/well serum free assay medium (for F1P assay in cell culture medium), or 40 μL/well 100% human plasma (for F1P assay in 50% human plasma) were then added to the plates on the following day, and incubated for 1 hour at 37° C., 5% CO2, 90% humidity. ^13C6-labelled fructose (Sigma, Catalog #587621) in sterile PBS was added to the plates at a final concentration of 5 mM. The plates were incubated for 2 hours at 37° C., 5% CO2, 90% humidity. The assay was quenched by washing the cells with sterile PBS and adding 60 μL/well of 80% (v/v) methanol, 2 mM ammonium acetate and 2.5 μM Crotonyl-CoA, using a BioTEK washer-dispenser system. The plates were then sealed and stored in the −80° C. freezer until ready for RapidFire readout. ^13C6-fructose-1-phosphate in individual wells was quantified using the Agilent RapidFire High-Throughput MS system in negative mode using a […]. Mobile Phase 1 consisted of 20 mM ammonium acetate with 0.05% acetic acid in 100% methanol. Mobile phase 2 consisted of 5 mM octylamine in water (pH adjusted to 5 using acetic acid). F1P signals in individual wells were normalized by crotonyl CoA internal control.

human KHK-C = human KHK-C (Homo sapiens (Human), UniProt P50053); test: KHK Biochemical Assay (IC50), ADP-Glo, KHK-C; details: average of at least two separate assays
In short: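 His-tagged enzyme expressed in BL21 (DE3), Ni-NTA purified. Compounds, serially diluted 1:3 in DMSO, pre-incubated 30 min with enzyme in 50 mM Hepes pH 7.4, 140 mM KCl, 5 mM MgCl2, 0.01% Triton-X, then ATP and fructose added; 4 h at room temperature. ADP formation read by ADP-Glo luminescence.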

[1] = Homo sapiens, HepG2, HepG2 cells, 50% human plasma, read-out: F1P 50% HP EC50
[2] = Homo sapiens, HepG2, read-out: F1P 10% FBS EC50, HepG2 cells, cell culture medium (10% FBS)
[3] = HepG2 cells, 50% human plasma, read-out: F1P 50% HP EC50
[4] = read-out: F1P 10% FBS EC50, HepG2 cells, cell culture medium (10% FBS)

Sequence of human KHK-C (P50053 whole entry): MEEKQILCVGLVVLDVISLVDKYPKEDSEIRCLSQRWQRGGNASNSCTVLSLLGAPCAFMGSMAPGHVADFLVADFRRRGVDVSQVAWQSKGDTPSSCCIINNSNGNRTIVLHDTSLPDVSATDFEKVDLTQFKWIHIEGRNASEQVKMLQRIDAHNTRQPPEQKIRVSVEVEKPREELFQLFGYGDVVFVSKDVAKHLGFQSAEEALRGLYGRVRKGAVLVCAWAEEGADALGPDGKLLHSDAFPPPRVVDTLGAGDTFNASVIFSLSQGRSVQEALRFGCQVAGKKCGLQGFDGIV

Row | SMILES | EC50 (HepG2 cells; [1]) [nM] | EC50 (HepG2 cells; [2]) [nM] | IC50 (human KHK-C) [nM] | EC50 (HepG2 cells; [3]) [nM] | EC50 (HepG2 cells; [4]) [nM] | EC50 (HepG2 cells; Homo sapiens, HepG2, read-out: F1P 10% FBS EC50) [nM] | EC50 (HepG2 cells; Homo sapiens, HepG2, read-out: F1P 50% HP EC50) [nM]
1 | C[C@H]1[C@H](O)CN1c1nc(-c2ccc3c(c2)CC[C@]32COC(=O)N2)c2c(n1)C(F)(F)CC2 (single isomer, unassigned) [Example 475] | 207 | 104 | 15 | – | – | – | –
2 | COc1cc(-c2nc(N3C[C@@H](O)[C@@H]3C)nc3c2CCC3(F)F)cc2c1[C@H](NS(C)(=O)=O)CO2 (single isomer, unassigned) [Example 478] | – | 28.5 | 2.9 | 55.5 | – | – | –
3 | C[C@H]1[C@H](O)CN1c1nc(-c2ccc([C@@]3(N)CCOC3)cc2)c2c(n1)C(F)(F)CC2 (single isomer, unassigned) [Example 517] | 6.3 | 4.8 | 1 | – | – | – | –
4 | C[C@H]1[C@H](O)CN1c1nc(-c2cc(F)c3c(c2)CC[C@@H]3NS(C)(=O)=O)c2c(n1)C(F)(F)CC2 (single isomer, unassigned) [Example 526] | 114 | 30.8 | 4.9 | – | – | – | –
5 | C[C@H]1[C@H](O)CN1c1nc(-c2cc(F)c3c(c2)CC[C@H]3NS(C)(=O)=O)c2c(n1)C(F)(F)CC2 (single isomer, unassigned) [Example 527] | 123 | 81.2 | 8 | – | – | – | –
6 | COc1cc(-c2nc(N3C[C@@H](O)[C@@H]3C)nc3c2CCC3(F)F)cc2c1[C@H](NS(C)(=O)=O)CO2 (single isomer, unassigned) [Example 531] | – | – | 9 | 439 | 55.1 | – | –
7 | CC[C@H]1CNC(=O)c2ccc(-c3nc(N4C[C@@H](O)[C@@H]4C)nc4c3CCC4(F)F)cc2O1 (single isomer, unassigned) [Example 592] | 56.9 | 15.3 | 7.3 | – | – | – | –
8 | CC[C@@H]1CNC(=O)c2ccc(-c3nc(N4C[C@@H](O)[C@@H]4C)nc4c3CCC4(F)F)cc2O1 (single isomer, unassigned) [Example 593] | – | – | 7.5 | 58.7 | 22.8 | – | –
9 | C[C@H]1[C@H](O)CN1c1nc(-c2ccc3c(c2)O[C@@H](CF)CNC3=O)c2c(n1)C(F)(F)CC2 (single isomer, unassigned) [Example 595] | 51 | 34.9 | 4.4 | – | – | – | –
10 | C[C@H]1[C@H](O)CN1c1nc(-c2ccc3c(c2)O[C@H](CF)CNC3=O)c2c(n1)C(F)(F)CC2 (single isomer, unassigned) [Example 596] | 13.6 | 12.2 | 2 | – | – | – | –
11 | C[C@H]1CCN1c1nc(-c2ccc3c(c2)[C@@H](NS(C)(=O)=O)CC3)c2c(n1)C(F)(F)CC2 (single isomer, unassigned) [Example 609] | 54.7 | 10.7 | 1 | – | – | – | –
12 | C[C@H]1[C@H](O)CN1c1nc(-c2ccc3c(c2)[C@H](NS(C)(=O)=O)CO3)c2c(n1)C(F)(F)CC2 (single isomer, unassigned) [Example 615] | – | – | 3.5 | 30.7 | 16.1 | – | –
13 | C[C@H]1[C@H](O)CN1c1nc(-c2cccc([C@@H]3CCS(=O)(=O)N3)c2)c2c(n1)C(F)(F)CC2 (single isomer, unassigned) [Example 618] | – | – | 11.2 | 24 | 18.1 | – | –
14 | C[C@H]1[C@H](O)CN1c1nc(-c2ccc3c(c2)[C@@H](NS(C)(=O)=O)CC3)c2c(n1)C(F)(F)CC2 (single isomer, unassigned) [Example 622] | 46.1 | 8.8 | 1.5 | – | – | – | –
15 | C[C@H]1[C@H](O)CN1c1nc(-c2ccc3c(c2)[C@H](NS(C)(=O)=O)CC3)c2c(n1)C(F)(F)CC2 (single isomer, unassigned) [Example 623] | 34.8 | 6.8 | 1.3 | – | – | – | –
16 | C[C@H]1[C@H](O)CN1c1nc(-c2ccc3c(c2)C(C)(C)C[C@H]3NS(C)(=O)=O)c2c(n1)C(F)(F)CC2 (single isomer, unassigned) [Example 631] | > 500 | 78.9 | 10.7 | – | – | – | –
17 | C[C@H]1[C@H](O)CN1c1nc(-c2ccc3c(c2)S(=O)(=O)C[C@@H]3N)c2c(n1)C(F)(F)CC2 (single isomer, unassigned) [Example 662] | 17.2 | 22.6 | 3.1 | – | – | – | –
18 | C[C@H]1[C@H](O)CN1c1nc(-c2ccc([C@@H](N)CC#N)cc2)c2c(n1)C(F)(F)CC2 (single isomer, unassigned) [Example 779] | 37.7 | 47.5 | 7.1 | – | – | – | –
19 | NC1(c2ccc(-c3nc(N4CC(F)(F)[C@H]4CO)nc4c3CCC4(F)F)cc2)CS(=O)(=O)C1 (single isomer, unassigned) [Example 783] | > 500 | > 500 | 98.7 | – | – | – | –
20 | C[C@H]1CCN1c1nc(-c2cn(C3CNC3)nn2)c2c(n1)C(F)(F)CC2 [Example 653, 4-[1-(azetidin-3-yl)triazol-4-yl]-7,7-difluoro-2-[(2S)-2-methylazetidin-1-yl]-5,6-dihydrocyclopenta[d]pyrimidine] | 10.3 | 11 | – | – | – | – | –
21 | C[C@H]1CCN1c1nc(-c2cccc(-n3ccnn3)c2)c2c(n1)C(F)(F)CC2 [Example 654, 7,7-difluoro-2-[(2S)-2-methylazetidin-1-yl]-4-[3-(triazol-1-yl)phenyl]-5,6-dihydrocyclopenta[d]pyrimidine] | 214 | 129 | – | – | – | – | –
22 | C[C@H]1CCN1c1nc(-c2ccc(-n3ccnn3)cc2)c2c(n1)C(F)(F)CC2 [Example 655, 7,7-difluoro-2-[(2S)-2-methylazetidin-1-yl]-4-[4-(triazol-1-yl)phenyl]-5,6-dihydrocyclopenta[d]pyrimidine] | 236 | 46.2 | – | – | – | – | –
23 | N#C[C@H]1CCN1c1nc(-c2ccc([C@@H](N)C(F)F)cc2)c2c(n1)C(F)(F)CC2 [Example 660, (2R)-1-[4-[4-[(1R)-1-amino-2,2-difluoro-ethyl]phenyl]-7,7-difluoro-5,6-dihydrocyclopenta[d]pyrimidin-2-yl]azetidine-2-carbonitrile] | 26.7 | 19.8 | – | – | – | – | –
24 | C[C@H]1[C@H](O)CN1c1nc(-c2ccc3c(c2)CCS3(=N)=O)c2c(n1)C(F)(F)CC2 (stereo partly drawn) [Example 664, (2S,3R)-1-[7,7-difluoro-4-(1-imino-1-oxo-2,3-dihydrobenzothiophen-5-yl)-5,6-dihydrocyclopenta[d]pyrimidin-2-yl]-2-methyl-azetidin-3-ol] | – | – | – | – | – | 80.2 | 78.6
25 | C[C@H]1[C@H](O)CN1c1nc(-c2ccc3c(c2)S(=O)(=O)CC3NS(C)(=O)=O)c2c(n1)C(F)(F)CC2 (stereo partly drawn) [Example 665, N-[6-[7,7-difluoro-2-[(2S,3R)-3-hydroxy-2-methyl-azetidin-1-yl]-5,6-dihydrocyclopenta[d]pyrimidin-4-yl]-1,1-dioxo-2,3-dihydrobenzothiophen-3-yl]methanesulfonamide] | 88.4 | 52.7 | – | – | – | – | –
26 | C[C@H]1[C@H](O)CN1c1nc(-c2cccc(N=S3(=O)CCOCC3)c2)c2c(n1)C(F)(F)CC2 [Example 673, (2S,3R)-1-[7,7-difluoro-4-[3-[(4-oxo-1,4-oxathian-4-ylidene)amino]phenyl]-5,6-dihydrocyclopenta[d]pyrimidin-2-yl]-2-methyl-azetidin-3-ol] | 75.8 | 20.3 | – | – | – | – | –
27 | C[C@H]1[C@H](O)CN1c1nc(-c2ccc3c(c2)S(C)(=O)=NC3)c2c(n1)C(F)(F)CC2 (stereo partly drawn) [Example 805, (2S,3R)-1-[7,7-difluoro-4-(1-methyl-1-oxo-3H-1,2-benzothiazol-6-yl)-5,6-dihydrocyclopenta[d]pyrimidin-2-yl]-2-methyl-azetidin-3-ol] | 74.1 | 67.9 | – | – | – | – | –
28 | COC(=O)N[C@H]1COc2cc(-c3nc(N4C[C@@H](O)[C@@H]4C)nc4c3CCC4(F)F)ccc21 [Example 814, Methyl N-[(3R)-6-[7,7-difluoro-2-[(2S,3R)-3-hydroxy-2-methyl-azetidin-1-yl]-5,6-dihydrocyclopenta[d]pyrimidin-4-yl]-2,3-dihydrobenzofuran-3-yl]carbamate] | 155 | 91.6 | – | – | – | – | –
29 | COC(=O)N[C@@H]1COc2cc(-c3nc(N4C[C@@H](O)[C@@H]4C)nc4c3CCC4(F)F)ccc21 [Example 815, Methyl N-[(3S)-6-[7,7-difluoro-2-[(2S,3R)-3-hydroxy-2-methyl-azetidin-1-yl]-5,6-dihydrocyclopenta[d]pyrimidin-4-yl]-2,3-dihydrobenzofuran-3-yl]carbamate] | 138 | 64.3 | – | – | – | – | –
